This is an account of results in article PMC3431598, “Phylogenetic and Transcriptomic Analysis of Chemosensory Receptors in a Pair of Divergent Ant Species Reveals Sex-Specific Signatures of Odor Coding” (PLoS Genetics, 2012).

The test concerns the target T1, HsOrco (with AgOR10) (Harpegnathos saltator, UniProt E2BJ30).
T1 construct: gene Orco; full-length CDS from worker antennal cDNA; cRNA in Xenopus oocytes with mosquito AgOR10; with Odorant receptor 10 (Anopheles gambiae)
T1 sequence (E2BJ30 1-479): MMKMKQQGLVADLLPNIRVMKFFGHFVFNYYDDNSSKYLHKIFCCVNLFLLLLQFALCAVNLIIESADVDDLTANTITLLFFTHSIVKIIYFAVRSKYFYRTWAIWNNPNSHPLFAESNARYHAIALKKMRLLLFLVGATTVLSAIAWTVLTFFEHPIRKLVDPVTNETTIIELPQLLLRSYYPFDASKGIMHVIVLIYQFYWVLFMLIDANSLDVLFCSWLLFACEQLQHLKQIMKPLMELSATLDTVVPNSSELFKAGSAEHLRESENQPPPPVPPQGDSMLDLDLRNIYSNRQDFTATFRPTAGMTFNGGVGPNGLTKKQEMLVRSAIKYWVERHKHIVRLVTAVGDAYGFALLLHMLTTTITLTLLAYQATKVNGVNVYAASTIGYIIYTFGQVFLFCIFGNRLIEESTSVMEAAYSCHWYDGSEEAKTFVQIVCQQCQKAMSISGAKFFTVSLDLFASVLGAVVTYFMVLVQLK
T1 sequence (B5U0U7 1-375 partner): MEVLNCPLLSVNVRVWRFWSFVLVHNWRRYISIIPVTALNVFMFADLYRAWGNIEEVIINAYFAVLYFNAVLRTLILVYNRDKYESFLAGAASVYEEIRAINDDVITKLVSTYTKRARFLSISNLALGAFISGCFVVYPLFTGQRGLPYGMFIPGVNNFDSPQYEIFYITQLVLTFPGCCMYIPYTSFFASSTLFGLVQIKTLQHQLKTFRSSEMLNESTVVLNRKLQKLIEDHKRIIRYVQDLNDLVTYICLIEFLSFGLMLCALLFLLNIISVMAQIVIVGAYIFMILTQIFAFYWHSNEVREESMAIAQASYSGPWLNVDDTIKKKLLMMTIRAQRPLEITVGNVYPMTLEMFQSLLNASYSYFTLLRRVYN
Put plainly: two-electrode voltage clamp, Xenopus oocytes. In kind it is cell-based. As to conditions: Orco agonist; AgOR10 co-expressed; -80 mV. For orientation: Two-electrode voltage clamp holds a large cell at a set potential and records current.

SMILES strings stand for the structures.

Regarding `CCc1ccc(NC(=O)CSc2nnc(-c3cccnc3)n2CC)cc1` [VUAA1], the “two-electrode voltage clamp, Xenopus oocytes” value was “produced responses to VUAA1 (an agonist for Orco)”.
